Drawing on PubChem BioAssay AID1963840 (Molecular Pharmacology Branch, DTP, NCI, 2024), this text covers viability, T/C and IC50 for 10 compounds.

Values joined by “and” are separate entries in the source; they are usually repeats but may differ in a detail not shown here. Equal entries are not always repeated.

This assay deals with 695427-040-R-J1-PDC complex spheroid viability. Description: Anticancer human tumor 695427-040-R-J1-PDC patient-derived colon adenocarcinoma cell line growth inhibition [POLQ]. The conditions noted are these: for viability, T/C: stronger effect = lower value. As for the experimental part: Multicellular complex tumor spheroid response to Polymerase (POL) inhibitors (novobiocin, ART-558, RP6685) in combination with a variety of drugs and investigational agents in selected tumor cell lines
The POL inhibitors (novobiocin, ART-558, and RP6685) were evaluated both individually and in combination with standard of care and investigational anticancer small molecules within a complex spheroid model of solid tumors. . Complex spheroids include a stromal component modeled by human endothelial cells (HUVEC) and fibroblasts modeled by human mesenchymal stem cells (MSCs). The concentration ranges selected for each drug and investigational agent were based upon clinically achievable concentrations if the clinical Cmax of the agent was known.
Compounds. The drugs and investigational agents: novobiocin (NSC847541), ART-558 (NSC835418), RP-6685 (NSC848927), peposertib (NSC802822), ceralasertib (NSC780249), elimusertib (NSC800525), camonsertib (NSC841442), AZD-1390 (NSC803789), olaparib (NSC753686), talazoparib (NSC767125), rucaparib (NSC756644), sotorasib (NSC818433), MRTX-1133 (NSC836407), SN-38 (NSC673596), topotecan (NSC609699), epotoside (NSC141540), doxorubicin (NSC123127), gemcitabine (NSC613327), 5-fluorouracil (NSC19893), paclitaxel (NSC125973), vemurafenib (NSC761431), MSA-2 (NSC828583), SN-011 (NSC837082), adavosertib (NSC754352), prexasertib (NSC758257), carboplatin (NSC241240) and oxaliplatin (NSC266046), were obtained from the National Cancer Institute (NCI) Developmental Therapeutics Program Chemical Repository (21). The FDA-approved anticancer drug set is available from the Developmental Therapeutics Program at https://dtp.cancer.gov/organization/dscb/obtaining/. […] The stock solutions were prepared in dimethyl sulfoxide (DMSO, Sigma-Aldrich, St. Louis, MO, cat. D2650), except for the platinum compounds which were prepared in saline (Quality Biological, Gaithersburg, MD, cat. 114-055-101), at 800-fold the tested concentration and stored at -70 degrees C prior to their use. All drugs and investigational agents were tested over a range starting from a high concentration at or near the clinical Cmax and decreasing in half-log increments. If the clinical Cmax for an agent had not been determined, the highest concentration tested was 10 microM, except for SN-38, which was tested at a high concentration of 1 microM.
Cell Culture. All cells were maintained in an incubator at 37 degrees C and 5% CO2 with 95% humidity. The PDC lines were cultured according to standard operating procedures established by the NCI PDMR (https://pdmr.cancer.gov). Table 3 of the manuscript, lists the cell lines along with the number of the three cell types plated to form the mct-spheroids and media for tumor cell growth. After thawing, all PDC lines, except 997537-175-T-J1-PDC and 415267-285-R-J2-PDC, were cultured in Matrigel-coated flasks prepared with a working solution of 1X Ham's F-12 nutrient mix, without supplementation (Thermo Fisher Scientific, cat. 11765054), 100 U/mL penicillin-streptomycin (Thermo Fisher Scientific, cat. 15140122), and 2.5% Matrigel (Corning Inc., Corning, NY, cat. 354248) for the first three passages. The two PDC lines 997537-175-T-J1-PDC and 415267-285-R-J2-PDC were cultured on uncoated flasks. The 857933-349-R-J2-PDC line was cultured in 6C/Colon 1B media containing advanced DMEM/F-12 (Thermo Fisher Scientific, cat. 12634028), 10 mM HEPES (Thermo Fisher Scientific, cat. 15630080), 1X GlutaMAX supplement (Thermo Fisher Scientific, cat. 35050061), 0.1 mg/mL primocin (InvivoGen, San Diego, CA, cat. ant-pm-2), 10% defined fetal bovine serum, heat inactivated (HyClone Laboratories Inc., Logan, UT, cat. SH30070.03HI), 50% L-WRN conditioned media (ATCC, cat. CRL-3276), 1.25 mM N-Acetyl-L-cysteine (Sigma-Aldrich, cat. A9165), 10 mM nicotinamide (Sigma-Aldrich, cat. N0636), 1X B-27 supplement (Thermo Fisher Scientific, cat. 17504044), 1X N-2 supplement (Thermo Fisher Scientific, cat. […]
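Note: spheroids exposed to compounds for seven days.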

Take `C=CCn1c(=O)c2cnc(Nc3ccc(N4CCN(C)CC4)cc3)nc2n1-c1cccc(C(C)(C)O)n1`: the viability, T/C (in general, the ratio of treated to control) reads like this: (compound 0.00316 µM) 99.5% and 88.8% and 103%; (compound 0.01 µM) 90.1% and 92% and 91.7%; (compound 0.0316 µM) 98.5% and 104% and 103%; (compound 0.1 µM) 103% and 99.2% and 95.7%; (compound 0.316 µM) 86.5% and 95.4% and 93.7%; (compound 1 µM) 77.5% and 73.7% and 82%. In addition, where the note is “curve of compound”, the IC50 – broadly, the concentration that inhibits the measured activity by half – was above 1 µM.
For `CC(=O)O[C@H]1C(=O)[C@@]2(C)[C@H]([C@H](OC(=O)c3ccccc3)[C@]3(O)C[C@H](OC(=O)[C@H](O)[C@@H](NC(=O)c4ccccc4)c4ccccc4)C(C)=C1C3(C)C)[C@]1(OC(C)=O)CO[C@@H]1C[C@@H]2O`, the viability, T/C (compound 0.00949 µM) was 93.8% and 92.4% and 99.8%; the viability, T/C (compound 0.03 µM) is 86.1% and 95.4% and 86.8%; the viability, T/C (compound 0.0949 µM) is 91.8% and 101% and 86.8%; the viability, T/C (compound 0.3 µM) is 90.8% and 96.8% and 89.7%; the viability, T/C (compound 0.949 µM) is 102% and 98.8% and 82.3%; the viability, T/C (compound 3 µM) was 84.5% and 89.3% and 74.2%. Also, the 50% inhibitory concentration (IC50) (curve of compound) is above 3 µM.
Regarding `CC1COCCN1c1cc(-c2ccnn2C)c2ccnc(-c3ccn[nH]3)c2n1` (stereo not given), the viability, T/C (compound 0.0316 µM) is 99% and 89.7% and 98.1%; the viability, T/C (compound 0.1 µM) is 76.9% and 79.1% and 84.7%; the viability, T/C (compound 0.316 µM) is 64.2% and 62% and 69.8%; the viability, T/C (compound 1 µM) was 53.6% and 51.7% and 67.6%; the viability, T/C (compound 3.16 µM) was 48.9% and 46% and 62.1%; the viability, T/C (compound 10 µM) is 50.2% and 47.4% and 57.1%. Besides, for the setting “curve of compound”, the half-inhibitory concentration (IC50) was 4.35 µM and 1.4 µM and > 10 µM.
`CC1COCCN1c1cc(C2(S(C)(=N)=O)CC2)nc(-c2ccnc3[nH]ccc23)n1` (stereo not given): the viability, T/C is, setting by setting: (compound 0.0316 µM) 102% and 96% and 100%; (compound 0.1 µM) 96% and 102% and 100%; (compound 0.316 µM) 100% and 94.3% and 98.1%; (compound 1 µM) 103% and 91.7% and 102%; (compound 3.16 µM) 96.4% and 98.4% and 99.3%; (compound 10 µM) 80.5% and 96.6% and 81.2%. Moreover, for the setting “curve of compound”, the IC50 was above 10 µM.
On to `CCCS(=O)(=O)Nc1ccc(F)c(C(=O)c2c[nH]c3ncc(-c4ccc(Cl)cc4)cc23)c1F`, for which the viability, T/C (compound 0.0316 µM) is 106% and 102% and 97.1%; the viability, T/C (compound 0.1 µM) is 94.9% and 109% and 95.8%; the viability, T/C (compound 0.316 µM) was 95.9% and 109% and 96.2%; the viability, T/C (compound 1 µM) was 108% and 103% and 104%; the viability, T/C (compound 3.16 µM) is 110% and 103% and 109%; the viability, T/C (compound 10 µM) was 87.5% and 88.3% and 86%. In addition, for the setting “curve of compound”, the 50% inhibitory concentration (IC50) was above 10 µM.
Turning to `CC[C@@]1(O)C(=O)OCc2c1cc1n(c2=O)Cc2cc3c(CN(C)C)c(O)ccc3nc2-1`, the viability, T/C runs as follows: (compound 0.000316 µM) 94.3% and 106% and 102%; (compound 0.001 µM) 105% and 101% and 103%; (compound 0.00316 µM) 102%; (compound 0.01 µM) 96.3% and 98.2% and 106%; (compound 0.0316 µM) 101% and 113% and 103%; (compound 0.1 µM) 94.8% and 111% and 89.7%. The IC50 (curve of compound) is above 0.1 µM.
On to `CCc1c2c(nc3ccc(O)cc13)-c1cc3c(c(=O)n1C2)COC(=O)[C@]3(O)CC`, for which the viability, T/C is, setting by setting: (compound 0.00316 µM) 92.3% and 98.2% and 97%; (compound 0.01 µM) 79.9% and 89.2% and 92.2%; (compound 0.0316 µM) 76.8% and 99.3% and 92.6%; (compound 0.1 µM) 77.9% and 90.7% and 82.1%; (compound 0.316 µM) 65.9% and 87.4% and 76%; (compound 1 µM) 49.6% and 66.4% and 51.3%. In addition, under “curve of compound”, the IC50 was above 1 µM.
In the case of `CNCc1ccc(-c2[nH]c3cc(F)cc4c3c2CCNC4=O)cc1`, the viability, T/C (compound 0.0316 µM) is 102% and 100% and 94.1%; the viability, T/C (compound 0.1 µM) is 96.6% and 99.5% and 98.4%; the viability, T/C (compound 0.316 µM) was 106% and 104% (2×); the viability, T/C (compound 1 µM) was 104% and 102% and 105%; the viability, T/C (compound 3.16 µM) is 108% and 118% and 102%; the viability, T/C (compound 10 µM) is 102% and 111% and 103%. Besides, where the note is “curve of compound”, the concentration for half-maximal inhibition (IC50) is above 10 µM.
Take `COC1C(OC(N)=O)C(O)C(Oc2ccc3c(O)c(NC(=O)c4ccc(O)c(CC=C(C)C)c4)c(=O)oc3c2C)OC1(C)C` (stereo not given): the viability, T/C reads like this: (compound 0.0316 µM) 104% [middle of 13 runs]; (compound 0.1 µM) 104% [middle of 13 runs]; (compound 0.316 µM) 106% [middle of 13 runs]; (compound 1 µM) 106% [middle of 13 runs]; (compound 3.16 µM) 110% [middle of 13 runs]; (compound 10 µM) 110% [middle of 13 runs]. Further, the half-maximal inhibitory concentration (IC50) (compound alone, run of 10/31/2023) is above 10 µM.
For the compound `COc1cc(C2c3cc4c(cc3C(OC3OC5COC(C)OC5C(O)C3O)C3COC(=O)C23)OCO4)cc(OC)c1O` (stereo not given), the viability, T/C reads like this: (compound 0.0316 µM) 95.6% and 105% and 95.5%; (compound 0.1 µM) 91.4% and 94.1% and 99%; (compound 0.316 µM) 96% and 96.6% and 109%; (compound 1 µM) 97.5% (2×) and 101%; (compound 3.16 µM) 91.6% and 99.4% and 94.1%; (compound 10 µM) 90.2% and 90.4% and 80.9%. The half-maximal inhibitory concentration (IC50) (curve of compound) was above 10 µM.
